Patent publication US10934253B2, “Therapeutic compounds and methods” (UNIVERSITY OF TASMANIA, priority 2017, dated 2021)

Experiments:
HepG2 cells [1] = test: Rescue of cell viability in the presence of a mitochondrial inhibitor (rotenone 1 μM); format: cell-based; details: for viability at 10 µM: Homo sapiens
Description: (§1) Cytoprotection of HepG2 cells by naphthoquinones was quantified in the presence of the mitochondrial toxin, rotenone. Briefly, HepG2 cells were seeded in 96-well plates at 5000 cells/well in DMEM with 0.3 g/l glucose, 10% FBS and Penicillin-Streptomycin-Glutamine. After overnight incubation under standard conditions, cells were treated with the test compounds (10 μM) for 2 days before cells were challenged with 1 μM rotenone in the presence of 10 μM test compounds in Hank's balanced salt solution (HBSS) for 6 hours. This was followed by post-incubation for an additional 18 hours with only 10 μM test compounds in HBSS. For measurement of cell viability, cells were washed with 100 μL PBS twice and then lysed using 40 μL lysis solution (4 mM EDTA, 0.2% Triton X-100) for 5 min at room temperature (RT) on an orbital shaker at 200 rpm. Then 10 μL of the lysate was mixed with 90 μL of enzyme-substrate mixture (as described above) in a white 96 well plate and luminescence was measured immediately using a plate-reader (Fluoroscan Ascent, Thermo Scientific). The data is expressed as % viability compared to the untreated (no-rotenone) control.
The extent of protection of cellular viability against a rotenone challenge of representative compounds of Formula (I) is shown below in Table 5. Vitamin K, Menadione and Idebenone were used as comparative controls. DMSO was used as a control.

HepG2 cells [2] = test: Cell viability in the presence of a mitochondrial inhibitor (rotenone 10 μM); format: cell-based; details: for viability at 10 µM: Homo sapiens, HepG2, 48 h, read-out: CELL VIABILITY [%]
Description: as §1
The cytoprotective effects of representative compounds of Formula (I) were further examined in vitro in response to rotenone toxicity at (10 μM). […] Cells were treated with the representative compounds of Formula (I) compounds (10 μM) for 2 days before cells were challenged with 10 μM rotenone.
Vitamin K, Menadione and Idebenone were used as comparative controls.

HepG2 cells [3] = test: Extracellular lactate levels, enzyme-linked colorimetric assay; format: cell-based; details: HepG2 culture medium; for Extracellular lactate [% control]: 25 mM glucose, supernatant after 48 h, standardized to protein; for Effect on lactate production (in words): comment on the lactate table
Description: Lactate concentrations in culture medium were determined by an enzyme-linked colorimetric assay. Briefly, 150,000 HepG2 cells were seeded in normal growth media (DMEM, 10% FCS, Pen/Strep) in each well of a 6-well plate (Life Science, USA) and incubated for 24 h. The media was replaced with growth media containing (25 mM glucose,) with and without test compounds. Three untreated wells containing only cells were considered the experimental baseline control and all compounds were tested in three different wells simultaneously. Supernatants were collected after 48 h and transferred into 96-well format. After the addition of 90 μl of reaction buffer (10 mM KH2PO4 pH 7.8, 1 mg/ml BSA, 0.5 mM PMS, 2 mM EDTA, 0.6 mM DCPIP, 0.8 mM NAD+, 5 U/ml glutamate-pyruvate-transaminase, 1.5 mM glutamate, 12.5 U/ml lactate dehydrogenase) the plate was incubated at 30° C. inside a multimode plate reader (Multiscan Go, Thermo Scientific) and absorbance was measured at 600 nm over a period of 100 minutes. A standard curve was generated using media spiked with known lactate concentrations. Finally, protein levels were quantified and the lactate concentration of each well was standardized to its protein content and was then expressed as % of control.
The extent of lactate reduction in the cell culture media by the test compounds of the subject invention and the Comparative Compounds vitamin K, menadione and idebenone is shown below in Table 6.

HepG2 cells [4] = test: Acute ATP rescue assay (impaired mitochondrial function, rotenone); format: cell-based; details: for ATP rescue (in words): HepG2, rotenone, comment on Table 4
Description: HepG2 cells were seeded at a density of 5000 cells per well in a 96-well plate and incubated for 24 hours in DMEM with 0.3 g/l glucose, 10% FBS and Penicillin-Streptomycin-Glutamine. Cells were treated with 1 μM quinones in presence or absence of rotenone (10 μM), for 60 minutes in glucose-free DMEM ATP levels were quantified using luminescence from the ATP-dependent enzymatic oxidation of luciferin by luciferase. Cells were lysed in a volume of 40 μl (4 mM EDTA, 0.2% Triton X-100) for five minutes at room temperature (RT) on an orbital shaker at 200 rpm. […] Luminescence was quantified immediately using a multimode plate reader (Fluoroscan Ascent, Thermo Scientific). ATP levels were standardized to protein levels using a commercial BCA assay (Protein DC; BioRad) and changes were calculated as percentage relative to levels of DMSO-treated control cells. Data is expressed as % ATP compared to the untreated (no-rotenone) control.
Vitamin K, menadione and idebenone were used as comparative controls. DMSO was used as a control.

[5] = system: LHON model induced by intravitreal rotenone in C57BL/6 mouse; test: Leber's hereditary optic neuropathy (LHON) mouse model, optomotor response; format: in vivo; details: rotenone in left eye, 200 mg/kg orally in food
Description: FIG. 5: Efficacy of representative compounds of Formula (I) in leber's hereditary optic neuropathy (LHON) mouse model. LHON induced by rotenone injection in the left eye (5 μM) in C57BL/6 mouse model (Refer to Heitz, F. D et al. (2012). PLoS One., 7(9), e45182). […] Representative compounds (UTA 37 and UTA 77) and idebenone administered at 200 mg/kg over the observation period.
LHON model was induced by intravitreal injection of rotenone into the left eye in C57BL/6 mouse model as described by Heitz et al. 2012. Representative compounds (UTA 37 and UTA 77) and idebenone administered at 200 mg/kg over the observation period. Vision loss was measured by assessing number of head turns.
C57BL/6 mice (male, 8-11 weeks of age, average body weight≈25 g) were used in accordance with the Australian code for the use of animals for scientific purposes and under the required animal ethics approval from the University of Tasmania (UTAS) Animal Ethics Committee (Approval number A0016080). Animals were given at least seven days to acclimatise to the animal facility to reduce stress induced by transportation before being used for behavioural testing. All mice were supplied orally with test compounds by mixing test compounds into individual daily food portions as described previously (Heitz, F. D. et al. (2012). PLoS One., 7(9), e45182). […]

HepG2 cells [6] = test: ATP rescue in the presence of a mitochondrial inhibitor (rotenone 10 μM); format: cell-based; details: compounds 10 uM for 2 days, then 10 μM rotenone challenge
Description: The extent of ATP rescue of representative compounds of Formula (I) were further examined in vitro in response to rotenone toxicity at (10 μM). […] Cells were treated with the representative compounds of Formula (I) compounds (10 μM) for 2 days before cells were challenged with 10 μM rotenone.

Molecule | viability at 10 µM (HepG2 cells [1]; HepG2) [%] | viability at 10 µM (HepG2 cells [2]) [%] | Extracellular lactate [% control] (HepG2 cells [3]) | Effect on lactate production (in words) (HepG2 cells [3]) | ATP rescue (in words) (HepG2 cells [4]) | activity at 1 µM (HepG2 cells [4]; Homo sapiens, 1 h, HepG2, 1 μM quinones with rotenone 10 μM, 60 minutes, glucose-free DMEM, % ATP compared to untreated (no-rotenone) control) [%] | melting point [°C] | Protection of visual acuity (head turns, optomotor response; in words) [5] | Protection of cell viability (in words) (HepG2 cells [1]; HepG2, rotenone, comment on Table 5) | Viability [%] (HepG2 cells [1]; HepG2, 10 μM test compound 2 days, 1 μM rotenone challenge 6 hours, 18 hours post-incubation, % of untreated (no-rotenone) control) | CELL VIABILITY [%] (HepG2 cells [2]; HepG2, compounds 10 uM for 2 days, then 10 μM rotenone challenge) | ATP rescue [%] (HepG2 cells [4]; HepG2, 1 μM quinones with rotenone 10 μM, 60 minutes, glucose-free DMEM, % ATP compared to untreated (no-rotenone) control) | % ATP RESCUE (HepG2 cells [6]) [%]
CC1=CC(=O)c2ccccc2C1=O [Menadione, reference compound] | 64 | 64 | 163.3 | increase lactate concentrations | no or minor effects | 30.6 |  |  |  |  |  |  | 
CC1=C(CCCCCCCCCCO)C(=O)c2ccccc2C1=O [UTA #2, 2-(10-Hydroxydecyl)-3 methyl-1,4-naphthoquinone] |  | 68.9 |  |  |  |  | 74 to 75 |  |  |  |  |  | 
CC1=C(CCCC(=O)N[C@@H](Cc2ccccc2)C(=O)O)C(=O)c2ccccc2C1=O [UTA #37, (S)-2-(4-(3-methyl-1,4-naphthoquinone-2-yl)butanamido)-3-phenylpropanoic Acid] | 100 | 100 |  |  |  |  |  | Statistically significant protection of visual acuity |  |  |  |  | 
Vitamin K [reference compound] |  |  | 92.0 | slight but non-significant effect | no or minor effects |  |  |  | no protective effect | 14.5 | 14.5 | 3.5 | 3.5
